Measurements taken from paper PMC4809600, “The Influence of Chronic Wound Extracts on Inflammatory Cytokine and Histatin Stability” (PLoS ONE, 2016).

Assays:
[1] = Stability in PBS, capillary zone electrophoresis; format: physicochemical; conditions: 1 mg/ml in PBS mixed 1:1 with PBS, 37°C, 24 h, CZE, UV 200 nm, ratio to imidazole internal standard, 0 h = 100%
Description: To determine the stability of the different peptides in CWE, histatins and cytokines were dissolved in PBS at 1 mg/ml. Histatins and cytokines were incubated in a 1:1 ratio with (i) PBS, (ii) CWE in PBS, or (iii) CWE in PBS containing PIC, in a total volume of 25 μl. Imidazole (Sigma-Aldrich) was added as an internal standard, with a final concentration of 100 μg/ml. The mixtures were incubated at 37°C, and samples were taken at 0, 24, 48, 72 and 96 h. For histatins containing mixtures, additional samples were taken after 2, 4, 8 and 16 h of incubation.
The samples were analyzed with a BioFocus 2000 capillary zone electrophoresis system (Bio-Rad Laboratories, Hercules, CA, USA) equipped with an uncoated fused-silica capillary of internal diameter 50 μm and a length of 24 cm. Samples were loaded by pressure injection (5 psi/sec). Separation was performed at 10 kV (cathode at the detector side) at 20°C using 0.1 M phosphate buffer (pH 2.5) as electrolyte and monitored continuously at 200 nm. Peaks were quantified with the BioFocus Integrator software. In order to quantify the percentage of intact peptides remaining after incubation with CWE, the ratios of histatins, rhIL-6 or rhCXCL8 to internal standard was set at 100% at 0h, and the ratios at the other incubation time points were related to this.

[2] = Stability in chronic wound extracts (CWE), capillary zone electrophoresis; format: in vitro ADME, human; conditions: 37°C, CZE; for Percentage intact, CWE 2h / Percentage intact, CWE 4h / Percentage intact, CWE 8h / Percentage intact, CWE 16h / Percentage intact, CWE 24h / Percentage intact, CWE 48h / Percentage intact, CWE 72h / Percentage intact, CWE 96h: 1 mg/ml in PBS mixed 1:1 with CWE (1 mg/ml protein, pool of 5 donors) in PBS, UV 200 nm, ratio to imidazole
Procedure, shortened: (§1)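 Peptides or cytokines (1 mg/ml stock) mixed 1:1 with PBS or pooled chronic-wound extract (1 mg/ml protein, three pools of five donors), ±protease inhibitor cocktail, at 37 °C for up to 96 h. Analyzed by capillary zone electrophoresis (pH 2.5 phosphate, 200 nm), with peak ratio to imidazole standard relative to 0 h as % intact.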

[3] = Stability in CWE with protease inhibitor cocktail (PIC), capillary zone electrophoresis; format: in vitro ADME, human; conditions: 37°C, CZE, 0 h = 100%; for Percentage intact, CWE + PIC 2h / Percentage intact, CWE + PIC 4h / Percentage intact, CWE + PIC 8h / Percentage intact, CWE + PIC 16h / Percentage intact, CWE + PIC 24h / Percentage intact, CWE + PIC 48h / Percentage intact, CWE + PIC 72h / Percentage intact, CWE + PIC 96h: 1 mg/ml in PBS mixed 1:1 with CWE (1 mg/ml protein, pool of 5 donors) in PBS containing PIC (final 1:140 v/v), ratio to imidazole
Procedure, shortened: as §1

cyclo(DNLPETGGDSHEKRHHGYRRKFHEKHHSHREFPFYGDYGSNYLY) [cHst1]
Percentage intact, PBS 24h ([1]; experiment 1 of 3): 91.5758%
Percentage intact, PBS 24h ([1]; experiment 2 of 3): 95.461%
Percentage intact, PBS 24h ([1]; experiment 3 of 3): 100.575%
Percentage intact, CWE 2h ([2]; 0 h = 100%, experiment 1 of 3): 94.125%
Percentage intact, CWE 2h ([2]; 0 h = 100%, experiment 2 of 3): 97.8952%
Percentage intact, CWE 2h ([2]; 0 h = 100%, experiment 3 of 3): 100%
Percentage intact, CWE 4h ([2]; 0 h = 100%, experiment 1 of 3): 84.7219%
Percentage intact, CWE 4h ([2]; 0 h = 100%, experiment 2 of 3): 88.931%
Percentage intact, CWE 4h ([2]; 0 h = 100%, experiment 3 of 3): 83.8816%
Percentage intact, CWE 8h ([2]; 8 h, 0 h = 100%, experiment 1 of 3): 81.3497%
Percentage intact, CWE 8h ([2]; 8 h, 0 h = 100%, experiment 2 of 3): 83.9314%
Percentage intact, CWE 8h ([2]; 8 h, 0 h = 100%, experiment 3 of 3): 78.1579%
Percentage intact, CWE 16h ([2]; 0 h = 100%, experiment 1 of 3): 71.6467%
Percentage intact, CWE 16h ([2]; 0 h = 100%, experiment 2 of 3): 74.8159%
Percentage intact, CWE 16h ([2]; 0 h = 100%, experiment 3 of 3): 54.5266%
Percentage intact, CWE 24h ([2]; 24 h, 0 h = 100%, experiment 1 of 3): 54.5627%
Percentage intact, CWE 24h ([2]; 24 h, 0 h = 100%, experiment 2 of 3): 58.7294%
Percentage intact, CWE 24h ([2]; 24 h, 0 h = 100%, experiment 3 of 3): 52.1934%
Percentage intact, CWE 48h ([2]; 0 h = 100%, experiment 1 of 3): 29.9428%
Percentage intact, CWE 48h ([2]; 0 h = 100%, experiment 2 of 3): 34.7264%
Percentage intact, CWE 48h ([2]; 0 h = 100%, experiment 3 of 3): 26.5123%
Percentage intact, CWE 72h ([2]; 0 h = 100%, experiment 1 of 3): 20.4492%
Percentage intact, CWE 72h ([2]; 0 h = 100%, experiment 2 of 3): 21.8694%
Percentage intact, CWE 72h ([2]; 0 h = 100%, experiment 3 of 3): 20.7179%
Percentage intact, CWE 96h ([2]; 0 h = 100%, experiment 1 of 3): 15.3884%
Percentage intact, CWE 96h ([2]; 0 h = 100%, experiment 2 of 3): 19.0259%
Percentage intact, CWE 96h ([2]; 0 h = 100%, experiment 3 of 3): 11.1869%
remaining at 8 h, 0.5 mg/ml ([2]; human, chronic wound extracts (CWE), 1 mg/ml in PBS mixed 1:1 with CWE (1 mg/ml protein, pools of 5 donors), 8 h, 0 h = 100%, mean of 3 independent experiments, read-out: Original amount of peptide remaining intact after 8 h in CWE): 81%
remaining at 24 h, 0.5 mg/ml ([2]; human, chronic wound extracts (CWE), 1 mg/ml in PBS mixed 1:1 with CWE (1 mg/ml protein, pools of 5 donors), 24 h, 0 h = 100%, mean of 3 independent experiments, read-out: Original amount of peptide remaining intact after 24 h in CWE): 55%
metabolised at 8 h, 0.5 mg/ml ([2]; human, chronic wound extracts (CWE), incubation with chronic wound extracts, 8 h, read-out: Breakdown (degradation) in CWE in 8 h): ~20%
Percentage intact, CWE + PIC 2h ([3]; experiment 1 of 3): 89.1635%
Percentage intact, CWE + PIC 2h ([3]; experiment 2 of 3): 89.9717%
Percentage intact, CWE + PIC 2h ([3]; experiment 3 of 3): 92.8798%
Percentage intact, CWE + PIC 4h ([3]; experiment 1 of 3): 81.2396%
Percentage intact, CWE + PIC 4h ([3]; experiment 2 of 3): 77.3258%
Percentage intact, CWE + PIC 4h ([3]; experiment 3 of 3): 92.4896%
Percentage intact, CWE + PIC 8h ([3]; experiment 1 of 3): 74.181%
Percentage intact, CWE + PIC 8h ([3]; experiment 2 of 3): 79.1445%
Percentage intact, CWE + PIC 8h ([3]; experiment 3 of 3): 86.6559%
Percentage intact, CWE + PIC 16h ([3]; experiment 1 of 3): 65.982%
Percentage intact, CWE + PIC 16h ([3]; experiment 2 of 3): 74.0107%
Percentage intact, CWE + PIC 16h ([3]; experiment 3 of 3): 77.3109%
Percentage intact, CWE + PIC 24h ([3]; 24 h, experiment 1 of 3): 76.8799%
Percentage intact, CWE + PIC 24h ([3]; 24 h, experiment 2 of 3): 76.3765%
Percentage intact, CWE + PIC 24h ([3]; 24 h, experiment 3 of 3): 70.9573%
Percentage intact, CWE + PIC 48h ([3]; experiment 1 of 3): 68.226%
Percentage intact, CWE + PIC 48h ([3]; experiment 2 of 3): 72.203%
Percentage intact, CWE + PIC 48h ([3]; experiment 3 of 3): 63.9246%
Percentage intact, CWE + PIC 72h ([3]; experiment 1 of 3): 63.1229%
Percentage intact, CWE + PIC 72h ([3]; experiment 2 of 3): 65.5213%
Percentage intact, CWE + PIC 72h ([3]; experiment 3 of 3): 53.9233%
Percentage intact, CWE + PIC 96h ([3]; experiment 1 of 3): 57.543%
Percentage intact, CWE + PIC 96h ([3]; experiment 2 of 3): 57.4907%
Percentage intact, CWE + PIC 96h ([3]; experiment 3 of 3): 51.0863%
remaining at 24 h, 0.5 mg/ml ([3]; human, with protease inhibitor cocktail (PIC), CWE with protease inhibitor cocktail (final 1:140 v/v), 24 h, mean of 3 independent experiments, read-out: Remaining fraction of intact peptide after 24 h in CWE + PIC): 74%
